Results on one compound are retold here after article PMC12406253, “Exploration of the Neuromodulatory Properties of Fyn and GSK-3β Kinases Exploiting 7‑Azaindole-Based Inhibitors” (Journal of Medicinal Chemistry, 2025).

For data set [1], the system named is neurospheres (NPCs from the subventricular zone). Put plainly: Neurosphere growth analysis (NPC proliferation). As to conditions: 0.1, 1, and 5 μM; 7 days. In kind it is cell-based, mice. As to the method: Based on that, we further investigated the neurogenic and differentiation potential of our kinase inhibitors in cell culture of neurospheres, which are floating pools of NPCs coming from the subventricular zone (SVZ) of six-month-old mice. Particularly, we first analyzed the variation, during 7 days, in number and size of neurosphere population with and without treatment.
To investigate the effect of compounds of interest in neurospheres’ growth rate, single spheres were plated in suspension in 96-well plates (5 × 10^3 cells/well) in the presence of compounds (0.1 μM, 1 μM, and 5 μM) in complete DMEM F-12 culture medium. One image/well was acquired every day by using the Sartorius Incucyte Live-Cell Analysis System and evaluated through the Brightfield Spheroid Analysis Software Module. Only aggregates with areas larger than 400 μm^2 were considered for statistical analysis.

Data set [2] can be described thus: BBB permeability in hCMEC/D3 transwell model. Conditions: human.
Experimental: To this aim, the immortalized human brain endothelial cell line (hCMEC/D3) was used since it mimics the brain endothelium-restricted permeability and expresses most of the transporters and receptors present in vivo, constituting a valuable in vitro model of the human BBB crossing system.
BBB permeability assay was conducted as described in Albertini et al. The brain microvascular endothelial cells (hCMEC/D3) were seeded at the density of 5 × 10^4 cells per cm^2 in the upper compartment of Transwell filters (polyester, pore size 0.4 μm, 12-well tissue culture transwell; Corning), precoated with rat tail collagen type I (0.1 mg/mL; Roche). They were grown for 7 days up to confluence in Endothelial Cell Growth Medium 2 (Promocell), supplemented with penicillin/streptomycin 100 U/mL, in a humidified, 5% CO2 incubator at 37 °C. Confluent monolayers were washed in prewarmed HBSS buffer, and the selected compounds were added to the apical (AP) side at a concentration of 100 μM. […] Samples (100 μL) were collected from the BL side at different time points (15, 30, 60, and 90 min) and then replaced with the corresponding volume of HBSS buffer. […] The concentration of compounds was determined using a Ultimate 3000 HPLC system (ThermoFisher) with UV–vis detection at the maximum absorption wavelength of each compound except for inulin as determined by a spectrophotometric method using a Tecan Sunrise absorbance microplate reader. […] The permeability coefficient (Papp) was calculated as follows: Papp = (ΔQ/Δt)/(C [donor] × A), where ΔQ/Δt represents the permeation rate (mol/s), C [donor] is the initial compound concentration in the donor compartment at time 0 (mol/cm^3), and A represents the surface area of the filter (1.12 cm^2).

`Br.Cc1sc(NCc2ccnc(Cl)c2)nc1-c1c[nH]c2ncccc12` [Compound 43, N-((2-Chloropyridin-4-yl)methyl)-5-methyl-4-(1H-pyrrolo[2,3-b]pyridin-3-yl)thiazol-2-amine Hydrobromide]: the “Neurosphere number (object count per image), neurogenesis” value in data set [1] is “not effective”. The compound further yielded a Papp A→B at 90 min, 100 μM in data set [2] of 32 ± 5.38 ×10⁻⁶ cm/s.
